Assay results taken from patent publication US20250082651A1, “GANAXOLONE FOR USE IN TREATING GENETIC EPILEPTIC DISORDERS” (Marinus Pharmaceuticals, Inc., priority 2017, published 2025).
Values joined by “and” are separate entries in the source; they are usually repeats but may differ in a detail not shown here. Equal entries are not always repeated. “Also recorded” adds a separate entry of the source.

Key:
[1] = system: cytochrome P450 (CYP) isoenzymes 1A1/2 and 2B1/2; assay: CYP induction and auto-induction in animals; format: in vivo, rat
[2] = In vitro haemolysis and human plasma compatibility
[3] = Plasma concentrations in paediatric patients after oral dosing; format: in vivo, human; conditions: for Plasma concentrations: oral with food, 1 to 13 year old epilepsy patients
[4] = Integrated adverse events from placebo controlled studies of ganaxolone; format: in vivo, human; conditions: Ganaxolone n = 750, placebo controlled studies
Text: As noted in Table 6, across multiple placebo controlled studies of ganaxolone across multiple indications including epilepsy, few side effects are reported that occur at a rate higher than those reported in placebo-treated subjects. These side effects are generally mild and have always been reversible. […] Four of the 7 children enrolled into this study remain on ganaxolone. Adverse events in this study are similar to those reported for all placebo controlled studies completed to date as summarized in Table 6 below.

[5] = system: children with CDKL5 Deficiency Disorder; assay: Phase 2 open-label trial, CDKL5 (CDD) cohort, seizure efficacy; format: in vivo, human
Text: Example 3 concerns a Phase 2 Multicenter, Open-Label Proof-of-Concept Trial of ganaxolone (GNX) in cohorts of children having genetic epilepsies (PCDH19, CDKL5 LGS, and CSWS) (ClinicalTrials.gov Identifier: NCT02358538). There were 11 female children with PCDH19 epilepsy between 5-16 years old with a confirmed genetic mutation. There were 6 female and 1 male children with confirmed genetic mutations in the CDKL5 cohort. There were 10 children in the Lennox Gastaut Syndrome cohort. Two children with CSWS were enrolled into the study. The study was conducted with 12 weeks baseline, and up to 26 weeks of treatment followed by a 52 week open label treatment. The primary efficacy was the percentage change in seizure frequency per 28 days relative to baseline calculated using daily seizure diary. [Time Frame: 26 weeks]. Secondary Outcome Measures were: Clinician Global Impression of Change score as assessed by questionnaire. [Time Frame: 26 Weeks]; Patient Global Impression of Change score as assessed by questionnaire. [Time Frame: 26 Weeks]; Evaluation of safety and tolerability of open-label ganaxolone as adjunctive therapy for uncontrolled seizures in children with rare genetic epilepsies, based on adverse event log and other clinical safety assessments. [Time Frame: 26 weeks]; Responder rates [Time Frame: 26 weeks]; and Seizure free days [Time Frame: 26 weeks].
Following screening and baseline evaluations, consenting patients enrolled into a 26-week study during which investigators were allowed to flexibly dose ganaxolone up to a dose of 1,800 mg/day for patients whose body weight was >30 kg, or up to 63 mg/kg/day for patients whose body-weight was <30 kg. The primary efficacy measure is % change from baseline in the 28-day seizure frequency count. Safety and tolerability were within the secondary objectives of the study.
In this study, oral ganaxolone suspension or capsules were administered up to a total of 63 mg/kg/day (maximum 1800 mg/day) over 2-4 weeks. About six-eight titration steps are used, depending on the size of the patient. Children larger than 30 kg may take the ganaxolone capsules. The ganaxolone oral suspension was administered through an oral dosing syringe three times daily. The ganaxolone capsules were administered twice daily. The patients experience better absorption of the ganaxolone with meals (milk).
After establishing baseline seizure frequency, qualifying subjects entered the study and were treated with open-label ganaxolone oral suspension or ganaxolone capsules at doses up to a maximum of 1800 mg/day for up to 6 months. Maximum study participation was 94 weeks: a screening period up to 12 weeks to establish baseline seizure frequency, up to 26 weeks of treatment, a 52 week extension for subjects who benefited from ganaxolone treatment, and up to 4 weeks of down titration period. […] Refractive cases of LGS or CSWS that had prior response to steroid or ACTH could also have been enrolled.
Ganaxolone oral suspension was administered through an oral dosing syringe by parent or legal guardian 3 times daily (TID), following the morning, noon, and evening meal or snack. Each dose was separated by a minimum of 4 hours and a maximum of 8 hours. A missed dose of ganaxolone could have been taken up to 4 hours before the next scheduled dose; otherwise, the missed dose was not to be given.
Ganaxolone capsules were administered with a glass of water or other liquid 2 times daily (BID), following the morning and evening meal or snack. Ganaxolone was provided as either an oral suspension or capsules based on the subject's weight at study entry. Ganaxolone oral suspension was administered through an oral dosing syringe TID by a parent or guardian, following the morning, midday, and evening meal or snack. Each dose was separated by a minimum of 4 hours and a maximum of 8 hours. Ganaxolone capsules were administered BID, following the morning and evening meal or snack. […]

[6] = oral suspension formulation, 3 to 18 mg/kg TID, patients aged 4 to 41 months

With `CC(=O)[C@H]1CC[C@H]2[C@@H]3CC[C@H]4C[C@](C)(O)CC[C@]4(C)[C@H]3CC[C@]12C` [Ganaxolone, 3α-hydroxy-3β-methyl-5α-pregnan-20-one] the Auto-induction ([1]; dogs) was “no auto-induction”, the “Induction of CYP isoenzymes 1A1/2 and 2B1/2” value ([1]; female rats) was “induces” and the “Induction of CYP isoenzymes 1A1/2 and 2B1/2” value ([1]; male rats) was “not males”. The Auto-induction ([1]; mouse and rat) was “Auto-induction has also been observed”, the “Compatibility with human plasma” value [2] was “compatible with human plasma” and the Haemolysis [2] was “did not cause haemolysis”. For the same molecule, the Plasma concentrations ([3]; 1 mg/kg TID) was “up to 5.78 ng/mL”, the Trough concentrations ([3]; 12 mg/kg TID, humans about 0.6 to about 7 years old) was “at least 38.5±37.4 ng/mL” and the Plasma concentrations ([3]; 12 mg/kg TID) was 10.3 to 16.1 ng/mL. The concentration at 4 weeks ([3]; human, plasma, oral, β-cyclodextrin formulation with food, 6 mg/kg BID to 12 mg/kg TID, 5-15 year old, read-out: Plasma concentrations at week 4) was at most 22.1 ng/mL, the concentration at 8 weeks ([3]; human, plasma, oral, β-cyclodextrin formulation with food, 6 mg/kg BID to 12 mg/kg TID, 5-15 year old, read-out: Plasma concentrations at week 8) was 5.7 to 43.7 ng/mL and the Cmax [3, 6] was “about 123 ng/mL”. The Trough concentration [3, 6] was “about 23 ng/mL”, the “Adverse event: Dizziness” value [4] was 95 (13%) n (%) and the “Adverse event: Fatigue” value [4] was 51 (7%) n (%). The “Adverse event: Headache” value [4] was 37 (5%) n (%), the “Adverse event: Somnolence” value [4] was 134 (18%) n (%) and the “Improvement in seizure free days, individual patients” value ([5]; 2 out of 4 completed CDKL5 patients) was 78% and 368%. The “Patients with >50% reduction in seizure counts” value ([5]; 4 completed CDKL5 patients) was 3 out of 4, the “Patients with increase/improvement in seizure-free days” value ([5]; 7 CDKL5 patients) was “Four of the 7; also recorded: Five of the 7” and the “Mean percent change in 28-day total seizure frequency from baseline to Week 26” value ([5]; CDD cohort, PP Population) was 20.55%. The “Median percent change in 28-day total seizure frequency from baseline to Week 26” value ([5]; CDD cohort, PP Population) was 37.70%, the “Clinical global impression of improvement: much improved” value ([5]; CDD cohort, end of Week 26) was 3 subjects and the “Clinical global impression of improvement: very much improved” value ([5]; CDD cohort, end of Week 26) was 0 subjects. The Overall responder rate ([5]; CDKL5, 3 months (3/7 subjects)) was 43%, the Overall responder rate ([5]; CDKL5, 6 months (2/6 subjects)) was 33% and the “28-day seizure frequency, sum of individual seizures and clusters, post-baseline 26-week open-label period, Mean (SD)” value ([5]; CDKL5 N=7, MITT) was 137.70. The “28-day seizure frequency, sum of individual seizures and clusters, post-baseline 26-week open-label period, Median” value ([5]; CDKL5 N=7, MITT) was 67.29, the “28-day seizure frequency, sum of individual seizures and clusters, post-baseline through Month 3 (Day 91), Mean (SD)” value ([5]; CDKL5 N=7, MITT) was 129.78 and the “28-day seizure frequency, sum of individual seizures and clusters, post-baseline through Month 3 (Day 91), Median” value ([5]; CDKL5 N=7, MITT) was 55.69. For the same molecule, the “Percent change from baseline (at Day 91), 28-day seizure frequency, sum of individual seizures and clusters, Mean (SD)” value ([5]; CDKL5 N=7, MITT) was 31.23% and −31.23%, the “Percent change from baseline (at Day 91), 28-day seizure frequency, sum of individual seizures and clusters, Median” value ([5]; CDKL5 N=7, MITT) was 47.34% and −47.34% and the “Percent change from baseline (at Week 26), 28-day seizure frequency, sum of individual seizures and clusters, Mean (SD)” value ([5]; CDKL5 N=7, MITT) was 20.55% and −20.55%. For the same molecule, the “Percent change from baseline (at Week 26), 28-day seizure frequency, sum of individual seizures and clusters, Median” value ([5]; CDKL5 N=7, MITT) was 37.70% and −37.70%, the “% change seizure rate-12 month, Mean” value ([5]; CDKL5 cohort, N=3) was −56.12% and the “% change seizure rate-12 month, Median” value ([5]; CDKL5 cohort, N=3) was −47.79%. For the same molecule, the “Post-baseline 28-day seizure rate-12 month, Mean” value ([5]; CDKL5 cohort, N=3) was 114.39, the “Post-baseline 28-day seizure rate-12 month, Median” value ([5]; CDKL5 cohort, N=3) was 76.54 and the “% change seizure rate-3 month, Mean” value ([5]; CDKL5 cohort, N=7) was −32.67%. The “% change seizure rate-3 month, Median” value ([5]; CDKL5 cohort, N=7) was −49.99%, the “% change seizure rate-6 month, Mean” value ([5]; CDKL5 cohort, N=7) was −16.81% and the “% change seizure rate-6 month, Median” value ([5]; CDKL5 cohort, N=7) was −47.80%. The “Post-baseline 28-day seizure rate-3-month, Mean” value ([5]; CDKL5 cohort, N=7) was 821.16, the “Post-baseline 28-day seizure rate-3-month, Median” value ([5]; CDKL5 cohort, N=7) was 57.87 and the “Post-baseline 28-day seizure rate-6 month, Mean” value ([5]; CDKL5 cohort, N=7) was 1373.85. For the same molecule, the “Post-baseline 28-day seizure rate-6 month, Median” value ([5]; CDKL5 cohort, N=7) was 67.29, the “28-day individual seizure frequency, post-baseline 26-Week open-label period, Mean (SD)” value ([5]; CDKL5 n=7, MITT) was 103.70 and the “28-day individual seizure frequency, post-baseline 26-Week open-label period, Median” value ([5]; CDKL5 n=7, MITT) was 67.29. For the same molecule, the “28-day individual seizure frequency, post-baseline through Month 3 (Day 91), Mean (SD)” value ([5]; CDKL5 n=7, MITT) was 103.69, the “28-day individual seizure frequency, post-baseline through Month 3 (Day 91), Median” value ([5]; CDKL5 n=7, MITT) was 53.82 and the “Percent change from baseline (at Day 91), 28-day individual seizure frequency, Mean (SD)” value ([5]; CDKL5 n=7, MITT) was −30.33%. For the same molecule, the “Percent change from baseline (at Day 91), 28-day individual seizure frequency, Median” value ([5]; CDKL5 n=7, MITT) was −46.64%, the “Percent change from baseline (at Week 26), 28-day individual seizure frequency, Mean (SD)” value ([5]; CDKL5 n=7, MITT) was −21.06% and the “Percent change from baseline (at Week 26), 28-day individual seizure frequency, Median” value ([5]; CDKL5 n=7, MITT) was −38.10%. For the same molecule, the “Median percent reduction in seizures” value ([5]; children with CDKL5 disorder) was 43%, the “Reduction in seizure counts, individual patients” value ([5]; completed CDKL5 patients with >50% reduction) was 52% and 59% and 88% and the “Patients with improvement in seizure control that persists for up to 6 months” value ([5]; first 6 CDKL5 patients, preliminary) was 3 of 6.
